Measurements: ChEMBL document CHEMBL2401662, “The synthesis of neurotensin antagonist SR 48692 for prostate cancer research” (Bioorg Med Chem, 2013)
Calls of active or inactive are those of the source. The rule behind the calls is not given here.

Columns and labels:
[1] = Cytotoxicity against human C4-2B cells after 5 days by CellTitre Glo assay; format: functional, cell-based; details: LNCaP C4-2B, 120 h
Sortilin = biological target: T1, Sortilin (Homo sapiens, UniProt Q99523); experiment: Binding affinity to NTR3 (unknown origin)
T1 sequence (Q99523 whole entry): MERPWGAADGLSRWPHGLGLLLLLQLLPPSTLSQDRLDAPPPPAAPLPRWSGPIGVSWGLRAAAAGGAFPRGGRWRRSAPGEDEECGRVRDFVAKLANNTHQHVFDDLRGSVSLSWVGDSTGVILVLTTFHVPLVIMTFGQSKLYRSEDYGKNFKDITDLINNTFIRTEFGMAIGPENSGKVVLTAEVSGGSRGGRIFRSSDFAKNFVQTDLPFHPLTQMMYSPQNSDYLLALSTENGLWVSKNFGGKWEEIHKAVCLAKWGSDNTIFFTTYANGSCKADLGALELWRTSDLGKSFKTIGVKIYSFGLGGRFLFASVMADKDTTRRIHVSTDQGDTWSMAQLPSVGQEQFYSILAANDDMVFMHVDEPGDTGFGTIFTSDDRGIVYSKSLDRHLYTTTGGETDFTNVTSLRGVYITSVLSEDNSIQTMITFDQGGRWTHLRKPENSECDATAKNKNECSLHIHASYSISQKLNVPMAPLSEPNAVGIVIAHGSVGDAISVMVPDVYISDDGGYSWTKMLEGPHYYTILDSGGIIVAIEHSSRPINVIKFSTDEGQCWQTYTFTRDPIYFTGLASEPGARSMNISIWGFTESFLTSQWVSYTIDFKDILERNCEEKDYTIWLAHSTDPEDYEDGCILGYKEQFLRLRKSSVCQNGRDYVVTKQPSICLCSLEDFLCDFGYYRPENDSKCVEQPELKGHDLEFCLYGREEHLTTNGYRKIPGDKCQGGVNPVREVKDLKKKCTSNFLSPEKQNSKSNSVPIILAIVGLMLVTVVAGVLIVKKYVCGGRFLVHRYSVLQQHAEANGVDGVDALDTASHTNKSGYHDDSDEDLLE

LNCaP [2] = experiment: Cytotoxicity against human LNCAP cells at >/= 50 uM after 5 days by CellTitre Glo assay; format: functional, cell-based
SK-OV-3 [3] = experiment: Cytotoxicity against human SKOV3 cells at < 100 uM by MTS assay; format: functional, cell-based
SK-OV-3 [4] = experiment: Cytotoxicity against human SKOV3 cells at 100 uM by MTS assay; format: functional, cell-based
LNCaP C4-2B = experiment: Cytotoxicity against human C4-2B cells at >/= 50 uM after 5 days by CellTitre Glo assay; format: functional, cell-based
[5] = biological target: Neurotensin receptor type 2 (Homo sapiens, UniProt O95665); experiment: Binding affinity to NTR2 (unknown origin)
LNCaP [6] = experiment: Cytotoxicity against human biculamide-resistant LNCAP cells at >/= 50 uM after 5 days by CellTitre Glo assay; format: functional, cell-based
[7] = biological target: Neurotensin receptor type 1 (Rattus norvegicus, UniProt P20789); experiment: Displacement of [125I]NT from rat NTR1 transfected in mouse LTK cells; format: cell-based
Neurotensin receptor type 1, sequence (P20789 whole entry): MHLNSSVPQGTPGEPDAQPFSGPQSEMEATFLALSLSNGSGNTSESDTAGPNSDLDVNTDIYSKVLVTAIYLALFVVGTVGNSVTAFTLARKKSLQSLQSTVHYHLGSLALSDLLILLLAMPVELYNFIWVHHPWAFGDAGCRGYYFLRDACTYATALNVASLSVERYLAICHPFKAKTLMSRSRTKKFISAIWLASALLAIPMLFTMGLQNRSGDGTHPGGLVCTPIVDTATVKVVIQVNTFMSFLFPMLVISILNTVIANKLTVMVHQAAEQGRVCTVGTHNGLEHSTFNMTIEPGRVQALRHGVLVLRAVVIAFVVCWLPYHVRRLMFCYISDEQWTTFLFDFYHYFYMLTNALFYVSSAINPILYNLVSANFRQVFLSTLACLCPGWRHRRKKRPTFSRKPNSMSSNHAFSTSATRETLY

Neurotensin receptor type 2, sequence (O95665 whole entry): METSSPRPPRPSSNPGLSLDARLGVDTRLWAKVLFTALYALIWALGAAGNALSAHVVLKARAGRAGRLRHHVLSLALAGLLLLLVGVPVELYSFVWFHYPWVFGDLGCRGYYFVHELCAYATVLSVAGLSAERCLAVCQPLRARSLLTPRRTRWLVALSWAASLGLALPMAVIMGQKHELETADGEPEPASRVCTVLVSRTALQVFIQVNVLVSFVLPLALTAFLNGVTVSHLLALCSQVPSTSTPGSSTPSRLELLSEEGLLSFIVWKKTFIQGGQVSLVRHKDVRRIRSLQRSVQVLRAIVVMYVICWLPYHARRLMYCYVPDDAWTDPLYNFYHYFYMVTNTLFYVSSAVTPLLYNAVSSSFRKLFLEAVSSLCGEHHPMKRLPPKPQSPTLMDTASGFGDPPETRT

SMILES: COc1cccc(OC)c1-c1cc(C(=O)NC2(C(=O)O)C3CC4CC(C3)CC2C4)nn1-c1ccnc2cc(Cl)ccc12 (centres undefined) [REMINERTANT]
- IC50 [1]: 30000 nM
- IC50 (Sortilin): 238 nM
- Activity (LNCaP [2]): Active
- Activity (SK-OV-3 [3]): inactive
- Activity (SK-OV-3 [4]): Active
- Activity (LNCaP C4-2B): Active
- Ki [5]: 418 nM
- Activity (LNCaP [6]): Active
- Ki [7]: 2.6 nM
